Experimental data published in ChEMBL document CHEMBL3612052, “Identification of amino acid appended acridines as potential leads to anti-cancer drugs” (Bioorg Med Chem Lett, 2015).
The source made the active and inactive calls.

Columns and labels:
C6 [1] = test: Antiproliferative activity against rat C6 cells after 72 hrs by MTT assay; type: functional, cell-based; details: C6, 72 h
C6 [2] = test: Cell cycle arrest in rat C6 cells assessed as accumulation at G0/G1 phase at 10 uM after 36 hrs by propidium iodide staining-based flow cytometric analysis; type: functional
C6 [3] = test: Antiproliferative activity against rat C6 cells at 10 uM by phase contrast microscopic analysis relative to control; type: functional, cell-based
C6 [4] = test: Cell cycle arrest in rat C6 cells assessed as decrease in cell number in G2/M phase at 10 uM after 36 hrs by propidium iodide staining-based flow cytometric analysis relative to control; type: functional
C6 [5] = test: Cell cycle arrest in rat C6 cells assessed as decrease in cell number in S phase at 10 uM after 36 hrs by propidium iodide staining-based flow cytometric analysis relative to control; type: functional
C6 [6] = test: Cell cycle arrest in rat C6 cells assessed as accumulation at G0/G1 phase at 10 uM after 36 hrs by propidium iodide staining-based flow cytometric analysis relative to control; type: functional
C6 [7] = test: Antiproliferative activity against rat C6 cells assessed as appearance of differentiated morphology with long stellate process at 20 uM by alpha-tubulin immunostaining-based phase contrast microscopic analysis; type: functional, cell-based
C6 [8] = test: Antiproliferative activity against rat C6 cells assessed as reduction in cell number at 20 uM by alpha-tubulin immunostaining-based phase contrast microscopic analysis; type: functional
C6 [9] = test: Antiproliferative activity against rat C6 cells assessed as appearance of small cell body at 20 uM by alpha-tubulin immunostaining-based phase contrast microscopic analysis; type: functional
C6 [10] = test: Antiproliferative activity against rat C6 cells assessed as appearance of differentiated morphology with long stellate process at 10 to 20 uM by DAPI staining-based confocal microscopic analysis; type: functional, cell-based
C6 [11] = test: Antiproliferative activity against rat C6 cells assessed as reduction in cell number at 10 to 20 uM by DAPI staining-based confocal microscopic analysis; type: functional
C6 [12] = test: Antiproliferative activity against rat C6 cells assessed as appearance of small cell body at 10 to 20 uM by DAPI staining-based confocal microscopic analysis; type: functional
C6 [13] = test: Downregulation of GFAP expression in rat C6 cells by DAPI staining-based confocal microscopic analysis; type: functional, cell-based
C6 [14] = test: Induction of senescence in rat C6 cells assessed as translocation of mortalin from perinuclear region to pancytoplasmic region by DAPI staining-based confocal microscopic analysis; type: functional, cell-based
C6 [15] = test: Induction of senescence in rat C6 cells assessed as upregulation of mortalin expression in nucleus by DAPI staining-based confocal microscopic analysis; type: functional, cell-based
C6 [16] = test: Induction of senescence in rat C6 cells assessed as upregulation of HSP70 expression at 10 ug/ml by DAPI staining-based confocal microscopic analysis; type: functional, cell-based

O=C(N[C@@H](Cc1ccc(O)cc1)C(=O)NCC(=O)N1CCC[C@H]1C(=O)O)c1cccc2c(=O)c3ccccc3[nH]c12
14 µM: IC50 (C6 [1])
active: Activity (C6 [2]) | Activity (C6 [3]) | Activity (C6 [4]) | Activity (C6 [5]) | Activity (C6 [6]) | Activity (C6 [7]) | Activity (C6 [8]) | Activity (C6 [9]) | Activity (C6 [10]) | Activity (C6 [11]) | Activity (C6 [12]) | Activity (C6 [13]) | Activity (C6 [14]) | Activity (C6 [15]) | Activity (C6 [16])

COC(=O)CNC(=O)[C@H](Cc1ccc(O)cc1)NC(=O)c1cccc2c(=O)c3ccccc3[nH]c12
14 µM: IC50 (C6 [1])
active: Activity (C6 [2]) | Activity (C6 [3]) | Activity (C6 [4]) | Activity (C6 [5]) | Activity (C6 [6]) | Activity (C6 [7]) | Activity (C6 [8]) | Activity (C6 [9]) | Activity (C6 [10]) | Activity (C6 [11]) | Activity (C6 [12]) | Activity (C6 [13]) | Activity (C6 [14]) | Activity (C6 [15]) | Activity (C6 [16])

COC(=O)[C@H](Cc1ccc(O)cc1)NC(=O)c1cccc2c(=O)c3ccccc3[nH]c12
active: Activity (C6 [2])
14 µM: IC50 (C6 [1])

O=C(N[C@@H](Cc1ccc(O)cc1)C(=O)O)c1cccc2c(=O)c3ccccc3[nH]c12
active: Activity (C6 [2])
14 µM: IC50 (C6 [1])

O=C(O)CNC(=O)[C@@H]1CCCN1C(=O)[C@H](Cc1ccc(O)cc1)NC(=O)c1cccc2c(=O)c3ccccc3[nH]c12
active: Activity (C6 [2]) | Activity (C6 [3]) | Activity (C6 [4]) | Activity (C6 [5]) | Activity (C6 [6]) | Activity (C6 [7]) | Activity (C6 [8]) | Activity (C6 [9]) | Activity (C6 [10]) | Activity (C6 [11]) | Activity (C6 [12]) | Activity (C6 [13]) | Activity (C6 [14]) | Activity (C6 [15]) | Activity (C6 [16])
14 µM: IC50 (C6 [1])

COC(=O)[C@@H](NC(=O)c1cccc2c(=O)c3ccccc3[nH]c12)C(C)C
active: Activity (C6 [2])
14 µM: IC50 (C6 [1])
